The IC50 is the midpoint of a concentration-inhibition curve.

Four molecules from patent publication US11180615B2, “Cationic polyphosphazene compound, polyphosphazenes-drug conjugate compound and method for preparing same” (CNPHARM CO., LTD., priority 2016, dated 2021) can be followed below.

In data set [1] the test system is gastric cancer cell line MKN-28. The data set is described as follows: Nude mouse xenograft trial, MKN-28.
Procedure: Both tumor size and body weight of each were measured from the beginning of first injection to 40 days.
Data set [2] concerns non-small cell lung cancer cell line A549. The following applies: versus Taxotere.
A short description of data set [3]: Biodegradability in buffer at 37° C. followed by GPC. To be noted: buffer pH 5.4, 37° C. Format: physicochemical. Here is the method:
Instrument: Yonglin GPC system
Column: Waters Hydrogel HR column (1×guard, 1×linear, 2×HR2)
Eluent: water/acetonitrile (8:2) (0.5% NaNO3)
Two sample solutions were prepared by dissolving the polyphosphazene-paclitaxel conjugate of Example 20 (250 mg) in a buffer solution (5 ml) at pH=5.4 and in another buffer solution (5 ml) at pH=7.4. The two sample solutions were slowly shaken at 37° C. in a water bath and 500 μl of the sample solution was taken at predetermined schedule (0.5, 1, 2, 4, 6, 8, 16 day after incubation) and freeze-dried. The dried samples were dissolved in tetrahydrofuran involving 0.2% t-butyl ammonium bromide and subjected to gel permeation chromatography (GPC).

Another data set deals with A-549. The data set is described as follows: In vitro cytotoxicity (SRB method), A-549. To be noted: A-549, mean ± SD, n = 3-4. Format: cell-based. An excerpt:
(§1) Since the anticancer agent paclitaxel is well known to be clinically very efficacious against many different cancers, breast (MCF-7), ovarian (SK-OV3), non-small cell lung (A549) and stomach (SNU638) cancer cell lines were selected to test their in vitro cytotoxicity according to the literature method (SRB method) (Rita Song, et. al, J. Control. Release 105 (2005) 142-150).
A general note: The SRB assay estimates cell density from bound dye.

The next data set relates to SNU-638. The data set is described as follows: In vitro cytotoxicity (SRB method), SNU-638. In kind it is cell-based. The following applies: SNU-638, mean ± SD, n = 3-4.
From the text: as §1

Another data set has as its system SK-Ov3. The data set is described as follows: In vitro cytotoxicity (SRB method), SK-Ov3. Format: cell-based. To be noted: SK-Ov3, mean ± SD, n = 3-4.
From the text: as §1

The nature of data set [4]: Critical micelle concentration by pyrene fluorescence method. In kind it is physicochemical. To be noted: aqueous pyrene solution 6×10^−7 M. As to the method:
As above-mentioned, the polyphosphazene-docetaxel conjugate of the present invention forms polymeric micelles in aqueous solution. In order for such polymer-drug conjugate to be clinically useful for IV injection, the solution stability of the micelles self-assembled from the polymer-drug conjugate is critical. Such a micelle stability is expressed as “critical micelle concentration (CMC),” which is measured by several methods, but the most widely used method is “pyrene fluorescence method” (K. Kalyanasundoram, et. al, J. Am. Chem. Soc. […], 99, 2039). According to the method the CMC value of the polyphosphazene-docetaxel conjugate of the present invention was measured as in the following:
An aqueous pyrene solution (6×10^−7 M) was prepared and using this solution a series of sample solutions of the polyphosphazene-paclitaxel conjugate of Example 20 was prepared in the concentration range of 5.0-0.0005% (w/w). Fluorescence spectra were measured at 339 nm (Iex) and 390 nm (Iem) and then from the ratio of the fluorescence intensities of band I and band III, the value of CMC was determined as shown in FIG. 4.

A further data set concerns MCF-7. The data set can be described thus: In vitro cytotoxicity (SRB method), MCF-7. In kind it is cell-based. The following applies: MCF-7, mean ± SD, n = 3-4.
From the text: as §1

In the case of “[NP(MPEG550)1.5(LysEt-2′-aconitic-docetaxel)0.5]n [Example 14]”, in data set [1] (10 and 20 mg/kg as docetaxel, day 1, 5, 9, 40 days, versus Taxotere 10 mg/kg), the “antitumor activity against MKN-28 gastric tumor” value is “strong antitumor activity equivalent to Taxotere”. Besides, in data set [1] (judged from body weight, MKN-28 xenograft mice), the “systemic toxicity versus Taxotere” value is “lower systemic toxicity”. Moreover, the “antitumor activity against A549 tumor” value in data set [2] was “even better antitumor activity than the reference Taxotere”.
As to “[NP(MPEG550)1.50(LysEt)0.2(LysEt-2′-succinylpaclitaxel)0.3]n [Example 20]”, in data set [3], the “degradation of polyphosphazene backbone in acidic media” value is on record as “continuously degradable in acidic media”. The IC50 with A-549 is 170 ± 48.3 nM; in the data set on SNU-638 it was 364 ± 202 nM; in the data set on SK-Ov3 it was 588 ± 47.8 nM; with MCF-7 it was 165 ± 86.5 nM. Also, the “critical micelle concentration (CMC)” value in data set [4] stood at 41 mg/L.
In the case of `CC(=O)O[C@H]1C(=O)[C@@]2(C)[C@H]([C@H](OC(=O)c3ccccc3)[C@]3(O)C[C@H](OC(=O)[C@H](O)[C@@H](NC(=O)c4ccccc4)c4ccccc4)C(C)=C1C3(C)C)[C@]1(OC(C)=O)CO[C@@H]1C[C@@H]2O` [Paclitaxel, reference compound], the IC50 came to 6.63 ± 2.84 nM in the data set on A-549 (Homo sapiens, A549); 10.9 ± 0.9 nM with SNU-638 (Homo sapiens); 15.3 ± 2.6 nM with SK-Ov3 (Homo sapiens, SK-OV-3); 3.47 ± 0.62 nM with MCF-7 (Homo sapiens, MCF7).
For “[NP(MPEG550)1.50(GlyLysEt-2′-succinylpaclitaxel)0.50]n [Example 21]”, the IC50 with A-549 came out at 1540 ± 41.8 nM; with SNU-638 it was 5411 ± 46.6 nM; with SK-Ov3, 6960 ± 142 nM; with MCF-7 it was 317 ± 141 nM.
